Data on 1 substance can be found in US20100210536A1, “USE OF LEPTIN (22-56 ) AS A THERAPEUTIC AGENT” (priority 2007, published 2010).

The assay has as its system drug-resistant Mycobacterium tuberculosis. To be noted: peptide 10 micrograms per ml, seven days.

Where no end group is shown, it is not given here.

Usually % inhibition stands for the percentage by which the read-out fell short of the control.

As for “VPIQKVQDDTKTLIKTIVTRINDISHTQSVSSKQK-OH [Leptin (22-56)]”, the “% inhibition” value is on record as 0.0%.
